Like-named read-outs stand apart in the source and are kept apart here.
Test: pH-metric determination of pKa values (SiriusT3)
Type: physicochemical
Settings: methanol/ISA water cosolvent mixtures (0.15 M KCl), MeOH:ISA water cosolvent, extrapolated to 0% cosolvent, 25 °C, n=4
Description: pH-metric determination of pKa values
Experimental pKa was determined by pH-metric approaches using SiriusT3 (PIon Inc. Ltd, Forrest Row, UK) instrument which integrates a dispenser module equipped with precision dispensers, 0.5 mL syringes, a multi-tip capillary bundle, a titrator module, a microstirrer with variable speed, a combined double junction Ag/AgCl pH and reference electrode and a fibre optics dip probe connected to a deuterium UV pulsed light source and a photodiode array (PDA) detector, acquiring spectra in the 200-700 nm wavelength range. SiriusT3 Control software v 1.1.3.0 was employed for acquisition, while Sirius T3 Refine software v. 1.1.3.0 was used for data analysis. The glass microelectrode was standardized by means of a strong acid-strong base titration (0.5N HCl vs. 0.5N KOH) in the pH range 2.0-12.0 at fixed temperature (25±0.5°C) and I = 0.15 M for KCl addition, in N2 atmosphere. […]
The original method was described in a previous paper.e Briefly, a HPLC Thermo Fisher Scientific Dionex Ultimate 3000 instrument equipped with a Low-Pressure Mixing Gradient Pump LPG-3400 SD, ACC-3000 autosampler with termostatable column compartment, a DAD-3000 RS Detector and Chromeleon Data System Version 7.2.10 was used. […] The dead time, t0, was determined by monitoring the baseline disturbance. […]

## Cn1cc2c3nc(ncc31)Nc1cnn(c1)CCCNCCOc1ccc-2cc1 [Compound 5a]
read-out: pKa (basic), amino group (propan-1-amine)
  pKa: 8.2
read-out: pKa (basic), pyrrolo-pyrimidine moiety
  pKa: 4.35

From article PMC12067128, “Macrocyclization: Enhancing Drug-like Properties of Discoidin Domain Receptor Kinase Inhibitors” (ACS Medicinal Chemistry Letters, 2025)
